Assay [1] deals with T1, PDE5A1 (Homo sapiens, UniProt O76074). Nature of the assay: CoMSIA 3D-QSAR model prediction of PDE5A1 activity. The settings on record: EA minus PA. The method, then:
(§1) All molecular modeling and calculations were performed by the Sybyl program package. The structures of all compounds were constructed using the Sketch Molecule module. Structural energy minimization was carried out using the standard Tripos molecular mechanics force field and Gasteiger-Huckle charge, with the convergence criterion set at 0.005 kcal/(Å·mol) and the max iterations for the minimization set to 10,000.
Although CoMSIA is similar to CoMFA, CoMSIA not only computes the steric and electrostatic fields, but also calculates additional hydrophobic, hydrogen-bond donor, and hydrogen-bond acceptor fields. CoMSIA descriptors were calculated with the same lattice box, grid spacing and probe atom as that used for the CoMFA calculations. In CoMSIA analysis, the five different descriptor fields are not totally independent from each other. Given that the size of dataset, we decided to use three of five fields as the descriptors.

Assay [2] deals with T1, PDE5A1. Kind of assay: CoMFA 3D-QSAR model prediction of PDE5A1 activity. The settings on record: EA minus PA. Here is the method: as §1
The 3D cubic lattice region was created automatically and the grid spacing was set at 1.7 Å in the x, y, and z directions. A sp^3 carbon atom with + 1 net charge was taken as the probe atom and steric and electrostatic interactions were calculated by using the Tripos force field. A cutoff of 30 kcal/mol was adopted in calculating energies. With standard options for scaling of variables, the regression analysis was carried out using partial least squares (PLS) method. The cross-validation with Leave-One-Out (LOO) option was carried out to obtain the optimum number of components (ONC).The final model (non-cross-validated conventional analysis) was developed with the optimum number of components. Region focusing is an advanced strategy that improves prediction ability of the initial built CoMFA model. CoMFA region focusing method refines a model by increasing the weights of the lattice points. StDev × coefficient values were used as weights.

The target of assay [3] is T1, PDE5A1. The settings on record: converted from literature IC50; cited from earlier work.
The target in assay [4] is T1, PDE5A1. Nature of the assay: PDE5A1 inhibition assay, enzyme reaction with HPLC detection of cGMP. In kind it is biochemical. Conditions: 0.15 µg/mL PDE5A1, 7.5 µg/mL cGMP, 90 min at 35 ℃. The method, then: 50 μL analytes were injected and separated on the C18 5 μm column with a flow rate of 1 mL/min at 30 °C column temperature. The mobile phase consisted of methanol and 0.05 mol/L potassium dihydrogen phosphate (10:90, V/V).
All components for assay were diluted in assay buffer which contained 100 mM MgCl2 and 50 mM Tris–HCl (pH 8.0). The compounds were dissolved in DMSO and then further diluted to the desired concentration with assay buffer. 30 μL PDE5A1 solution and 30 μL compound solution were mixed at room temperature and incubated for 5 min, followed by addition of with 30 μL cGMP solution, and the reaction was carried out at 35 °C for 90 min. After the assay, each vial was incubated in 100 °C boiling water for 5 min to inactivate the PDE5A1 activity, and then was cooled to be detected with HPLC. No PDE5A1 was used as the positive control, and DMSO was used as the negative control. Percentage inhibition was calculated using the peak area of HPLC with the following formula.
For dose–response experiments, the PDE5A1 inhibitors were diluted to 7 concentrations series with fourfold gradient. Two individual operations were performed on different dates as the repetition.
For developing the screening method for PDE5A1 inhibitors, the in vitro enzyme reaction and HPLC detection were combined. […] The concentrations of enzyme and substrate are important parameters in the inhibitor screening assay.

For assay [5], the system named is cytoplasmic calcium in CCSMCs. Nature of the assay: Fluorescent staining of calcium (Fluo-4AM) in CCSMCs. Conditions: for fluorescence intensity of cytoplasmic calcium in CCSMCs: 10 uM, 30 min, Fluo-4 AM. In kind it is cell-based, rat. The source says: (§2) Male Sprague–Dawley (SD) rats (180–220 g) were purchased from Shanghai SLAC Laboratory Animal Co., Ltd. This experiment protocol was approved by the standardizing laboratory animal ethical review of Shanghai University of Traditional Chinese Medicine. After removal of the corpus spongiosum, subcutaneous tissue and deep fascia of penises of SD rats, the corpus cavernosum tissue was cut into small pieces of less than 2mm^3 and digested with 0.5% collagenase I and 20% fetal bovine serum (PFES) in DMEM for 4 h. The cell suspensions were collected by mesh filtration and centrifugation, and cultured in DMEM containing 20% PFES and 1 × antibiotics at 37 °C in a humidified atmosphere with 5% CO2. After 24 h culture, spindle CCSMCs attached to the culture dish. The medium was replaced with DMEM containing 10% PFES when CCSMCs reached 70% confluence.
CCSMCs were cultured in 6-well plate at a density of 100,000/well for 48 h. Then cells were stained by Fluo-4AM for 30 min prior to […] 1 ~ 3 exposure for 30 min in the presence or absence of 10 μM Rp-8-Br-cGMPS (the protein kinase G inhibitor). After PBS rinse, the cytosolic calcium was observed by fluorescence microscope.

The next assay concerns cGMP level of CCSMCs. Nature of the assay: cGMP assay in CCSMCs by ELISA. In kind it is cell-based, rat. Conditions: 10 μM, 48 h.
Source text: as §2
CCSMCs were seeded in 6-well plate at a density of 100,000/well for 24 h, and then were treated with 10 μM 1 ~ 3 for 48 h. The cells were lysed by 0.1 M hydrochloric acid with 200 μl per well for 20 min incubation, then the supernatant was collected and determined the cGMP content by ELISA.
(In general: In an ELISA, binding on a coated surface is turned into a signal by an enzyme label.)

Molecules are shown by their SMILES. Values joined by “and” are separate entries in the source; they are usually repeats but may differ in a detail not shown here. Equal values may be shown once. Read-outs that look alike come from different tables or passages of the source.

Data on 15 compounds can be found in publication PMC9805685, “Isolation, bioassay and 3D-QSAR analysis of 8-isopentenyl flavonoids from Epimedium sagittatum maxim. as PDE5A inhibitors” (Chinese Medicine, 2022).

In the case of `COc1ccc(-c2oc3c(CC=C(C)C)c(O)cc(O)c3c(=O)c2O)cc1` [Compound 7], the CoMSIA residual on PDE5A1 [1] was 0.058. Besides, the CoMFA residual on PDE5A1 [2] was 0.105.

With `COc1ccc(OC)c(C(=O)/C=C/c2ccc(OC)c(OC)c2)c1` [Compound 13], the “pIC50 (-logIC50), experimental activity (EA)” value (shortened to “pIC50 (-logIC50)”) at PDE5A1 [3] is listed as 5.155.

For `COc1ccc(/C=C/C(=O)c2c(OCc3ccccc3)cc(OC)c(OC)c2OC)cc1OC` [Compound 12], at PDE5A1 [3], the “pIC50 (-logIC50)” value is 5.229.

In general, IC50 refers to the concentration at which inhibition is half-maximal. For the compound `COc1ccc(-c2oc3c(CC=C(C)C)c(O)cc(O)c3c(=O)c2O[C@@H]2O[C@@H](C)[C@H](O)[C@@H](O)[C@H]2O)cc1` [Compound 3, baohuoside I], the IC50 at PDE5A1 [4] (read-out: PDE5A1 (IC50 ± SD)) is 5.47 µM and 5.48 µM. For the same compound, the CoMSIA residual at PDE5A1 [1] is listed as 0.013. Besides, in assay [5], the “fluorescence intensity of cytoplasmic calcium in CCSMCs” value was “decrease cytoplasmic Ca^2+”. In the assay with cGMP level of CCSMCs, the “cGMP level of CCSMCs” value is “increase cGMP level”.

As for `COc1ccc(-c2oc3c(CC=C(C)C)c(OC4OC(CO)C(O)C(O)C4O)cc(O)c3c(=O)c2OC2OC(C)C(O)C(O)C2OC2OCC(O)C(O)C2O)cc1` (centres unmarked) [Compound 5, epimedin B], at PDE5A1 [4] (read-out: PDE5A1 (IC50 ± SD)), the IC50 was 358 ± 34.2 µM. Also, the CoMFA residual at PDE5A1 [2] is on record as 0.032.

For `COc1ccc(-c2oc3c(CC=C(C)C)c(OC4OC(CO)C(O)C(O)C4O)cc(O)c3c(=O)c2OC2OC(C)C(O)C(O)C2OC2OC(CO)C(O)C(O)C2O)cc1` (centres unmarked) [Compound 4, epimedin A], on PDE5A1 [4] (read-out: PDE5A1 (IC50 ± SD)), the IC50 was 409 ± 31.4 µM.

For the compound `COc1ccc(-c2oc3c(CC=C(C)C)c(OCCO)cc(O)c3c(=O)c2OC2OC(C)C(O)C(O)C2O)cc1` (centres unmarked) [Compound 8], the “pIC50 (-logIC50)” value at PDE5A1 [3] is 6.444. Besides, at PDE5A1 [1], the CoMSIA residual is recorded as 0.000.

With `COc1cccc(/C=C/C(=O)c2c3c(c(OC)c4c2OCO4)CN(C)CC3)c1` [Compound 14], the “pIC50 (-logIC50)” value at PDE5A1 [3] is on record as 5.208. The CoMSIA residual on PDE5A1 [1] was 0.025. The CoMFA residual at PDE5A1 [2] is on record as 0.06.

For the compound `COc1ccc(-c2oc3c(CC=C(C)C)c(OC4OC(CO)C(O)C(O)C4O)cc(O)c3c(=O)c2OC2OC(C)C(O)C(O)C2OC2OC(C)C(O)C(O)C2O)cc1` (centres unmarked) [Compound 6, epimedin C], on PDE5A1 [4] (read-out: PDE5A1 (IC50 ± SD)), the half-maximal inhibitory concentration (IC50) turned out to be 682 µM. At PDE5A1 [1], the CoMSIA residual was 0.037.

On to `CCCOc1ccccc1-c1nc2n[nH]nc2c(=O)[nH]1` [Compound 17], for which the CoMSIA residual at PDE5A1 [1] was 0.001.

Turning to `CCCc1nn(C)c2c(=O)[nH]c(-c3cc(S(=O)(=O)N4CCN(C)CC4)ccc3OCC)nc12` [Sildenafil, sildenafil], the CoMFA residual at PDE5A1 [2] is reported as 0.068.

For `COc1ccc(-c2oc3c(CC=C(C)C)c(O[C@@H]4O[C@H](CO)[C@@H](O)[C@H](O)[C@H]4O)cc(O)c3c(=O)c2O[C@@H]2O[C@@H](C)[C@H](O)[C@@H](O)[C@H]2O)cc1` [Compound 1, icariin], on PDE5A1 [4] (PDE5A1 (IC50 ± SD)), the concentration for half-maximal inhibition (IC50) is 8.28 µM and 8.27 µM. Besides, the CoMFA residual at PDE5A1 [2] was 0.034. In addition, the “fluorescence intensity of cytoplasmic calcium in CCSMCs” value in assay [5] was “decrease cytoplasmic Ca^2+”. Further, the “cGMP level of CCSMCs” value with cGMP level of CCSMCs is “increase cGMP level”.

As to `COc1ccc(-c2oc3c(CC=C(C)C)c(O)cc(O)c3c(=O)c2OC2OC(C)C(O)C(O)C2OC2OC(C)C(O)C(O)C2O)cc1` (centres unmarked) [Compound 2, 2-O"-rhamnosylicaridide II], the IC50 on PDE5A1 [4] (read-out: PDE5A1 (IC50 ± SD)) amounted to 3.23 µM. For the same compound, at PDE5A1 [2], the CoMFA residual is recorded as 0.015. For the same compound, the “fluorescence intensity of cytoplasmic calcium in CCSMCs” value in assay [5] was “decrease cytoplasmic Ca^2+”. The “cGMP level of CCSMCs” value in the assay on cGMP level of CCSMCs was “increase cGMP level”.

`COc1ccc(C(=O)/C=C\c2cc(OC)c(OC)cc2OC)c(OC)c1` [Compound 10]: the “pIC50 (-logIC50)” value on PDE5A1 [3] is 5.745. In addition, the CoMSIA residual at PDE5A1 [1] is reported as 0.562. On PDE5A1 [2], the CoMFA residual is recorded as 0.296.

As to `Nc1nc2c(nc(Br)n2[C@@H]2O[C@@H]3COP(O)(=S)O[C@H]3[C@H]2O)c(=O)[nH]1` (some centres unmarked) [Rp-8-Br-cGMPS, reference compound], the “effect on calcium down-regulation by 1 ~ 3 in CCSMCs” value in assay [5] (10 μM Rp-8-Br-cGMPS together with 1 ~ 3, 30 min) is recorded as “blocked the down-regulated calcium levels”.
